Reference: PMC3953502 (ACS chemical biology, 2013)

What was measured:
ML-IAP = target: T1, ML-IAP (Homo sapiens, UniProt Q96CA5); experiment: Fluorescence polarization competition assay, ML-IAP BIR; type: binding
T1 sequence (Q96CA5 63-179 limits assumed): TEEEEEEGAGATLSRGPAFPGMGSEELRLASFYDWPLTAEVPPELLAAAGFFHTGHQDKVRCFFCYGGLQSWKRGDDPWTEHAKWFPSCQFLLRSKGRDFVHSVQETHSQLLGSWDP

Ovarian Cancer Cells = settings: 50 ng/mL TRAIL; cited from earlier work
[1] = system: MDA-MB-231 breast adenocarcinoma cells; experiment: MDA-MB-231 cell viability, sensitization to TRAIL; type: cell-based; settings: MDA-MB-231 cells, TRAIL alone at maximum dose of 100 ng/mL

## CN[C@@H](C)C(=O)N[C@H](C(=O)N1CCC[C@H]1C(=O)Nc1snnc1-c1ccccc1)C1CCCCC1 [GDC-0152]
ML-IAP
  Ki: 41 nM

## CN[C@@H](C)C(=O)N[C@H](C(=O)N1CC[C@H]2CCN(CCc3ccccc3)C[C@H]21)C1CCCCC1 [LBW242]
Ovarian Cancer Cells
  increase in LBW242-induced cell death with addition of TRAIL: 2- to 3 fold

B1: TRAIL: Tumor necrosis factor-related apoptosis-inducing ligand, member of the TNF family of cytokines (protein, UniProt P50591 1-281, looked up)
Tumor necrosis factor ligand …: MAMMEVQGGPSLGQTCVLIVIFTVLLQSLCVAVTYVYFTNELKQMQDKYSKSGIACFLKEDDSYWDPNDEESMNSPCWQVKWQLRQLVRKMILRTSEETISTVQEKQQNISPLVRERGPQRVAAHITGTRGRSNTLSSPNSKNEKALGRKINSWESSRSGHSFLSNLHLRNGELVIHEKGFYYIYSQTYFRFQEEIKENTKNDKQMVQYIYKYTSYPDPILLMKSARNSCWSKDAEYGLYSIYQGGIFELKENDRIFVSVTNEHLIDMDHEASFFGAFLVG
[1]
  cells undergone cell death: 30%
